The subject of data set [1] is HRV-2. Nature of the data set: Cytopathic effect inhibition assay (MTT), HRV-2 in HeLa cells. Type of data set: cell-based, human rhinovirus. The settings on record: read-out: IC50 (95% CL) HRV-2. The protocol:
(§1) Monolayers of HeLa and MRC5 cells were seeded onto a 96-well culture plate as stated previously. Subsequently, 90 μL media containing several different concentrations (1–1000 μg/mL) of each test material in DMSO was put into the wells, and then 10 μL of 10×TCID50 of the virus stock was added to produce an appropriate CPE within 2 days after infection. Ribavirin served as a reference control and was similarly prepared. Negative controls consisted of the DMSO solution. Viral inhibition rate (VIR) (%) was calculated according to the formula [21], VIR = (A tV—A cV)/(A cd—A cV) × 100, where A tV is the optical density measured with a given concentration of the test compound in HRV infected cells; A cV is the optical density measured for the control untreated HRV infected cells; A cd is the optical density measured for the control untreated HRV uninfected cells.
(§2) The CC50 and IC50 values were determined using GraphPad Prism 5 software program (GraphPad Software, La Jolla, CA). […] The selectivity index (SI) was determined as the ratio of CC50 to IC50 [23]. All data represent the mean ± SD of duplicate or triplicate samples of three independent experiments. Statistical analyses were carried out using SAS 9.13 program (SAS Institute, Cary, NC). Data from two groups were analyzed by a Student’s t-test, and multiple groups were analyzed by a one-way analysis of variance and Bonferroni multiple comparison post-test.
A general note: Protection from cytopathic effect is a common read-out in antiviral testing.

The subject of data set [2] is HRV-2. Briefly: Cytopathic effect inhibition assay (MTT), HRV-2 in MRC5 cells. Type of data set: cell-based, human rhinovirus. Conditions: read-out: IC50 (95% CL) HRV-2. The protocol:
as §1, §2

In data set [3] the test system is HRV-4. Briefly: Virus titration assay, HRV-4 in MRC5 cultures. Type of data set: cell-based, human rhinovirus. The settings on record: PGG 20 μg/mL, PA 100 μg/mL, ribavirin 100 μg/mL; for Log (TCID50/mL) ± SE HRV-4: infected MRC5 cultures, 48 h, infected untreated control 3.81; for Reduction of virus replication (Log (TCID50/mL)) ± SE HRV-4: vs infected untreated control. The protocol: (§3) Virus titers in infected MRC-5 cultures treated with PA and PGG were measured as TCID50 using MTT-based titration method. In brief, MRC5 cells were seeded at 10^5 cells/mL in a 6-well plate. After 24 h, the cell monolayers were treated with 100 μg/mL PA or 20 μg/mL PGG and infected with HRV-2 or HRV-4 in a concentration of 10×TCID50/mL. Uninfected untreated and infected untreated cultures were included in the assay. The 100 μg/mL of ribavirin was used as a reference control. After 48 h incubation at 37°C, the cultures were frozen and thawed at −80°C/25°C. Cell debris was removed by centrifugation (2000 rpm) and the virus supernatants were collected. Virus titration was then performed in HeLa cell cultures. Initially, a 1:10 dilution of each supernatant was prepared followed by 10 serial 2-fold-dilutions, and added to HeLa cell monolayers. After 48 h, cell mortality was measured using an MTT assay stated previously. Graphs were built by plotting dead cell percentages toward virus dilution factors of each virus supernatant. The 50% infectivity point was calculated through a linear regression analysis of the curve.

Data set [4] can be described thus: Cytotoxicity MTT assay in MRC5 cells. The data set is classed as cell-based, human. The settings on record: human, tetrazolium assay, read-out: CC50 (95% CL). The protocol:
(§4) The cytotoxicity of the test materials to two human cell lines was evaluated using an MTT assay described previously by Morgan. In brief, a 10× stock solution of MTT was prepared by adding 5 mg/mL MTT in phosphate-buffered saline (PBS) (pH 7.4). The stock solution was sterile-filtered and stored at −20°C. HeLa and MRC5 cells were seeded onto 96-well culture plates at a density of 3 × 10^4 cells per well for 1 day. The culture medium was removed and the plates with monolayer cells were replaced with media containing several different concentrations (1–1000 μg/mL) of the test materials in dimethylsulfoxide (DMSO). After incubation at 37°C and 5% CO2 for 2 days, the culture plates were then washed once with 200 μL PBS. A volume of 100 μL medium containing 0.05% MTT were added to each well and then incubated for 4 h at the same condition. After then, MTT solution was removed and 150 μL DMSO was added to each well. Finally, the plate was shaken for 15 min to dissolve the purple formazan crystals that had formed. Absorbance was read at 560 nm by using a VersaMax microplate reader (Molecular Devices, Sunnyvale, CA) with a reference absorbance at 670 nm.
(§5) The CC50 and IC50 values were determined using GraphPad Prism 5 software program (GraphPad Software, La Jolla, CA). […] The selectivity index (SI) was determined as the ratio of CC50 to IC50 [23]. All data represent the mean ± SD of duplicate or triplicate samples of three independent experiments. […] Data from two groups were analyzed by a Student’s t-test, and multiple groups were analyzed by a one-way analysis of variance and Bonferroni multiple comparison post-test.
(Tetrazolium dyes change colour on reduction, which living cells bring about.)

Data set [5] relates to HRV-2. Briefly: Virus titration assay, HRV-2 in MRC5 cultures. The settings on record: PGG 20 μg/mL, PA 100 μg/mL, ribavirin 100 μg/mL; for Log (TCID50/mL) ± SE HRV-2: infected MRC5 cultures, 48 h, infected untreated control 3.93; for Reduction of virus replication (Log (TCID50/mL)) ± SE HRV-2: vs infected untreated control. Type of data set: cell-based, human rhinovirus. The protocol:
as §3

The test system of the next data set is HRV-4 particles. Nature of the data set: Infectivity of HRV-4 particles (preincubation of virus). The data set is classed as cell-based, human rhinovirus. Conditions: MRC5 cells, 2 days; for inhibition at 100 µg/mL / inhibition at 20 µg/mL: Human rhinovirus sp. The protocol:
The effects of the test compounds on the infectivity of HRV-4 particles were elucidated as described previously by Choi et al.. […] HRV-4 was preincubated with 100 μg/mL PA, 20 μg/mL PGG, or 100 μg/mL ribavirin for 1 h at 4°C. Monolayers of MRC5 cells were infected with the pretreated or untreated HRV-4 for 1 h at 37°C. Unbound virus was removed by washing the wells with PBS twice, and then cells were incubated in fresh medium supplemented with or without test compounds at 37°C. After 2 days, MTT test and antiviral activity were carried out as stated previously.

A short description of data set [6]: Cytotoxicity MTT assay in HeLa cells. The data set is classed as cell-based. Conditions: human, tetrazolium assay, read-out: CC50 (95% CL). The protocol:
as §4, §5

Data set [7] has as its system HRV-4. Nature of the data set: Cytopathic effect inhibition assay (MTT), HRV-4 in MRC5 cells. The data set is classed as cell-based, human rhinovirus. Conditions: read-out: IC50 (95% CL) HRV-4. The protocol: as §1, §2
Where [8] appears, read: Rhinovirus A, HRV2, MRC5, HRV-2 in MRC5 cells.
The mark [9] stands for this setting: HRV4, 48 h, 100 μg/mL PA, 20 μg/mL PGG, 100 μg/mL ribavirin, read-out: inhibition rate, continuous presence during infection.
[10] abbreviates: HRV4, virus preincubated 1 h at 4°C with 100 μg/mL PA, 20 μg/mL PGG or 100 μg/mL ribavirin, read-out: inhibition rate, preincubation of HRV-4 particles.
Setting [11] is: Human rhinovirus sp., HRV4, MRC5, HRV-4 in MRC5 cells.

The text below walks through data of publication PMC4393083, “Antiviral Activity and Possible Mechanism of Action of Constituents Identified in Paeonia lactiflora Root toward Human Rhinoviruses” (PLoS ONE, 2015).

pIC50: −log10 of the molar value. Read-outs that look alike come from different tables or passages of the source.

As usually defined, the pIC50 is −log10 of the IC50, conventionally taken in molar units. Broadly, the CC50 is the concentration giving 50% cytotoxicity. For orientation: inhibition means the share of the control response that was lost under treatment. Turning to `COc1ccc(C(C)=O)c(O)c1` [PA, paeonol], the pIC50 with HRV-2 [1] (Rhinovirus A, HRV2, HeLa) is 3.22; with HRV-2 [1], 3.22; in the data set on HRV-2 [2] (HRV-2 in MRC5 cells), 3.30; with HRV-2 [2] (setting [8]) it was 3.30; with HRV-4 [7] (HRV-4 in MRC5 cells), 3.31; in the data set with HRV-4 [7] (setting [11]), 3.31. Also, the “reduction of the HRV-4 titer” value in the data set with HRV-4 [3] was found to be 27.6%. The “Log (TCID50/mL) ± SE HRV-4” value in the data set on HRV-4 [3] is given as 2.76 ± 0.024 b Log (TCID50/mL). The “Reduction of virus replication (Log (TCID50/mL)) ± SE HRV-4” value (“Reduction … (Log (TCID50/mL)) ± SE HRV-4” below) in the data set on HRV-4 [3] was 1.05 ± 0.023 Log (TCID50/mL). Moreover, the CC50 at 2 days in data set [4] was 3140 µM; in data set [6] it was 3160 µM. For the same compound, the “reduction of the HRV-2 titer” value in the data set with HRV-2 [5] was 22.4%. Further, in the data set on HRV-2 [5], the “Log (TCID50/mL) ± SE HRV-2” value was 3.05 ± 0.046 b Log (TCID50/mL). Besides, in the data set with HRV-2 [5], the “Reduction of virus replication (Log (TCID50/mL)) ± SE HRV-2” value (from here on “Reduction … (Log (TCID50/mL)) ± SE HRV-2”) is listed as 0.88 ± 0.046 Log (TCID50/mL). The inhibition at 100 µg/mL amounted to 57.2% with HRV-4 particles (setting [9]) and 10.6% in the data set on HRV-4 particles (setting [10]).
Turning to `O=C(OC[C@H]1O[C@@H](OC(=O)c2cc(O)c(O)c(O)c2)[C@H](OC(=O)c2cc(O)c(O)c(O)c2)[C@@H](OC(=O)c2cc(O)c(O)c(O)c2)[C@@H]1OC(=O)c1cc(O)c(O)c(O)c1)c1cc(O)c(O)c(O)c1` [PGG, 1,2,3,4,6-penta-O-galloyl-β-D-glucopyranose], the pIC50 in the data set with HRV-2 [1] (Rhinovirus A, HRV2, HeLa) is 4.94; with HRV-2 [1], 4.94; in the data set with HRV-2 [2] (HRV-2 in MRC5 cells) it was 4.75; with HRV-2 [2] (setting [8]), 4.75; in the data set with HRV-4 [7] (HRV-4 in MRC5 cells), 4.76; in the data set with HRV-4 [7] (setting [11]) it was 4.76. In addition, the “reduction of the HRV-4 titer” value in the data set on HRV-4 [3] is reported as 20.7%. For the same compound, in the data set with HRV-4 [3], the “Log (TCID50/mL) ± SE HRV-4” value is given as 3.04 ± 0.038 c Log (TCID50/mL). Besides, the “Reduction … (Log (TCID50/mL)) ± SE HRV-4” value with HRV-4 [3] is 0.79 ± 0.038 Log (TCID50/mL). Further, the CC50 at 2 days in data set [4] was 108 µM; in data set [6], 109 µM. Also, the “reduction of the HRV-2 titer” value in the data set with HRV-2 [5] is listed as 17.3%. For the same compound, the “Log (TCID50/mL) ± SE HRV-2” value in the data set on HRV-2 [5] was 3.25 ± 0.075 b ^b Log (TCID50/mL). Further, in the data set with HRV-2 [5], the “Reduction … (Log (TCID50/mL)) ± SE HRV-2” value is 0.68 ± 0.075 Log (TCID50/mL). Also, the inhibition at 20 µg/mL in the data set with HRV-4 particles (setting [9]) turned out to be 54.5%; in the data set on HRV-4 particles (setting [10]), 11.2%.
As to `NC(=O)c1ncn([C@@H]2O[C@H](CO)[C@@H](O)[C@H]2O)n1` [Ribavirin, reference compound], the pIC50 in the data set on HRV-2 [1] (Rhinovirus A, HRV2, HeLa) was 3.52; in the data set with HRV-2 [1], 3.52; with HRV-2 [2] (HRV-2 in MRC5 cells) it was 3.62; with HRV-2 [2] (setting [8]), 3.62; with HRV-4 [7] (setting [11]), 3.51. In the data set with HRV-4 [3], the “reduction of the HRV-4 titer” value is reported as 36.0%. In addition, the “Log (TCID50/mL) ± SE HRV-4” value in the data set with HRV-4 [3] is given as 2.44 ± 0.024 a Log (TCID50/mL). Also, in the data set with HRV-4 [3], the “Reduction … (Log (TCID50/mL)) ± SE HRV-4” value is 1.37 ± 0.023 Log (TCID50/mL). For the same compound, the results for the CC50 at 2 days in data set [4] and in data set [6] were 2230 µM and 2340 µM, respectively. Further, in the data set on HRV-2 [5], the “reduction of the HRV-2 titer” value was determined as 30.3%. The “Log (TCID50/mL) ± SE HRV-2” value with HRV-2 [5] is given as 2.74 ± 0.020 a Log (TCID50/mL). The “Reduction … (Log (TCID50/mL)) ± SE HRV-2” value in the data set with HRV-2 [5] was 1.19 ± 0.020 Log (TCID50/mL). For the same compound, the inhibition at 100 µg/mL in the data set with HRV-4 particles (setting [9]) is 58.2%. In addition, the “inhibition rate, preincubation of HRV-4 particles” value in the data set with HRV-4 particles (virus preincubated 1 h at 4°C with 100 μg/mL PA, 20 μg/mL PGG or 100 μg/mL ribavirin) is 10.0%.
